In data set [1] the test system is Caski human cervical cancer cells. The data set can be described thus: Tail vein metastasis and survival assay, Caski cells. The class given is in vivo, mice. The method, then: Described briefly below are the results of experiments conducted with several different cell types. • 1. PANCREATIC: Panc-1 human pancreatic cells (see ATCC CRL-1469) expressing LOX shRNA were subjected to a tail vein metastasis assay comparing their metastatic growth to that of control Panc-1 cells. […] CERVICAL: Tail vein metastasis assays were performed using Caski human cervical cancer cells (See CRL-1550). After 4 weeks of growth, half the mice were treated with BAPN. […] COLON: HCT116 human colon cancer cells (see CCL-247) were transfected to express LOX shRNA and grown as subcutaneous tumors in nude mice, while comparing their growth with that of control cells.
Caski Cervical cancer cells were injected into the tail vein of immune deficient mice and analyzed for survival differences. Metastases were allowed to form for two weeks before animals were treated with 100 mg/kg BAPN daily for up to 40 days. FIG. 14 is a Kaplan-Meyer plot showing survival of the animals. […] Upon discontinuation of BAPN treatment, animals started to die.

In another data set the test system is RAW macrophages. Put plainly: In vitro invasion of RAW macrophages towards conditioned media. In kind it is cell-based. As to conditions: BAPN at 200 μM. On the procedure:
To determine if LOX levels affected the migration or invasion of BMDCs, we performed in vitro invasion assays using CM as a chemo-attractant (FIG. 21B). The migration of BMDCs was increased by FN, regardless of LOX.
In vitro migration and invasion of RAW macrophage cells towards CM (as chemo-attractant) was measured in a transwell assay as described above. Fibronectin (cFN, Sigma) was used at 25 μg/ml and BAPN at 200 μM. Matrigel plugs were formed by mixing 60% Matrigel with 40% CM prior to subcutaneous injection of 500 μl of the mixture. Plugs were removed 7 days later, fixed in OCT, sectioned and stained for B-cells (B220). Cells in 10 fields of view were counted at least 50 μm away from the edge of the plug.

The next data set has as its system human cancer cells. The data set can be described thus: Cell viability. In kind it is cell-based. The note with it: data not shown.
For a further data set, the system named is lung and bone metastases. The data set can be described thus: Lung and bone metastases in treated mice (FIG. 17). In kind it is in vivo. As to conditions: FIGS. 17A-D. The method, then:
FIGS. 17A-C are pictures of lungs from mice which were treated and untreated with LOX shRNA, a LOX antibody or BAPN, showing the effect of LOX treatment on metastases in lung.
FIGS. 17A-C are pictures of lungs from mice which were treated and untreated with LOX shRNA, the LOX antibody in Example 7 or BAPN, showing the effect of LOX treatment on metastases in lung.

Data set [2] concerns MDA231 human breast cancer cells. Put plainly: Pulmonary foci after i.v. MDA231 cells with daily conditioned media injections. In kind it is in vivo, mice. The note with it: i.v. tumor cells with daily CM injections. The text has this:
To determine if the effect of increased circulating LOX levels on the growth of tumor cell foci at metastatic sites was independent of the initial steps of metastasis from a primary tumor (Steeg (2006) Nat. Med. 12:895-904), we intravenously injected MDA231 human breast cancer cells that expressed either LOX-targeting shRNA or a scrambled control sequence (Wt). We also provided circulating LOX by daily intraperitoneal injections of conditioned media (CM) derived from Wt or LOX shRNA cells exposed to hypoxic (H) or normoxic (N) conditions for 24 hours in vitro. […] CM from aerobic LOX shRNA cells had the lowest LOX activity (FIG. 19B).
Local secretion of LOX by Wt tumor cells could sustain growth of Wt foci in the absence of exogenous circulating LOX, although larger foci were present when circulating LOX from hypoxic Wt CM was supplied (FIG. 19F-G). Since circulating LOX levels are highest in mice prior to metastasis formation from a primary tumor (FIG. 19A), we injected CM daily for 2 weeks prior to i.v. tumor cell injection (FIG. 19B).
Conditioned media (CM) consisted of serum-free Modified Eagle's Medium cultured on MDA231 LOX shRNA or control cells incubated in normoxia (N; 21% O2) or hypoxia (H; 2% O2) for 24 h. CM was passed through a 0.22-μm filter and 300-μl were injected intraperitoneally daily into mice (Kaplan (2005), supra). […]

A further data set concerns MDA231 cells. Put plainly: Pulmonary metastases from orthotopic MDA231 tumors with conditioned media injections after bone marrow transplantation. The class given is in vivo, mice. An excerpt: We then determined whether elevated levels of circulating LOX from hypoxic tumor cells could affect BMDC recruitment and formation of the metastatic niche. We transplanted male bone marrow cells into female mice prior to orthotopically implanting Wt or LOX shRNA MDA231 cells, and used in situ hybridization with a Y-chromosome-specific probe to investigate BMDC recruitment. We allowed two weeks for primary tumor formation, and then supplemented the mice with different levels of circulating LOX for four weeks by daily intraperitoneal CM injections (FIG. 20B).
Nude (nu/nu) 6-week old female mice were lethally irradiated (950 rads) and transplanted with 10^6 bone marrow cells isolated from the tibia and femur of nude (nu/nu) male mice 48 hr later. After 4 weeks, 10^7 MDA231 human breast cancer cells expressing either an shRNA targeting LOX or a scrambled control sequence were implanted orthotopically in the mammary fat pad.
Conditioned media (CM) consisted of serum-free Modified Eagle's Medium cultured on MDA231 LOX shRNA or control cells incubated in normoxia (N; 21% O2) or hypoxia (H; 2% O2) for 24 h. CM was passed through a 0.22-μm filter and 300-μl were injected intraperitoneally daily into mice (Kaplan (2005), supra). When stated, beta-aminoproprionitrile was added to CM for an injection dose of 100 mg/kg. […]

Data set [3] deals with fibronectin null mouse embryonic fibroblasts. The data set can be described thus: In vitro invasion of fibronectin null cells. The class given is cell-based. On the procedure: FIG. 8 is a graph (A) showing fibronectin null mouse embryonic fibroblasts subjected to in vitro invasion assays; untreated invasion was compared with that of cells transfected with LOX antisense oligos (Antisense) or incubated with BAPN, and (B) Adhesion of SiHa cells expressing DSRED to matrix was assessed over time.
A role for fibronectin (FN) was sought, because it was strongly associated with LOX expression in the breast cancer microarray data set that was analyzed (data not shown), is reported to regulate invasion, bind to integrins and interact with LOX, and is hypoxia induced. […] FAK phosphorylation could be induced in the cells expressing LOX shRNA by transfection with mature LOX (but not catalytically dead LOX), confirming a role for LOX in FAK phosphorylation. […] It is proposed here that this is because LOX increases fibrillar collagen, which is a ligand for b1 integrin. Other integrin pathways have been reported to mediate hypoxia-induced invasion.

Molecules are shown by their SMILES.

`N#CCCN` [BAPN, β-aminoproprionitrile] yielded an animals survived in data set [1] (100 mg/kg BAPN daily for up to 40 days, started two weeks after injection) of 100%. In data set [1] (BAPN administered after 90 days to animals that already harbored metastases), the “disease course on renewed BAPN treatment” value is “became stabilized”. Moreover, the “lung foci (micro-metastases)” value in data set [1] (BAPN after 4 weeks of growth) is reported as “eliminated formation of any lung foci”. For the same molecule, the “increased BMDC invasion with hypoxic Wt CM” value in the data set on RAW macrophages is “could be prevented”. The cell viability result in the data set with human cancer cells is “Neither treatment with BAPN nor treatment with BCS affected cell viability”. Also, the “lung and bone metastases” value in the data set on lung and bone metastases is “either stabilized disease or regression of lung and bone metastases”. Moreover, the pulmonary foci formation result in data set [2] was “diminished foci formation”. Also, the “pulmonary metastases of mice bearing Wt tumors” value in the data set with MDA231 cells (6 wk post-orthotopic implantation) is reported as “eliminated”. In addition, the “increase in LOX shRNA tumor cell metastases in response to CM from hypoxic Wt cells” value in the data set with MDA231 cells (BAPN added to CM, injection dose 100 mg/kg) is “could be prevented”. In addition, the “invasion of FN-null cells” value in data set [3] is given as “strongly inhibited invasion (similarly to BAPN addition)”.

Source of the values: patent publication US20070225242A1, “Method and composition for treating and preventing tumor metastasis in vivo” (The Board of Trustees of the Leland Stanford Junior …, priority 2005, published 2007).
